Assay results: US9796753B2, “N-substituted indenoisoquinolines and syntheses thereof” (Purdue Research Foundation, priority 2005, dated 2017)
Where two headings read alike, the source gives them in different places.

Key:
[1] = system: CNS SF-539; assay: COMPARE screening (NCI human cancer cell line screen), cytotoxicity GI50; assay type: cell-based; settings: Homo sapiens, CNSSF-539, 48 h, read-out: Cytotoxicity (GI50) CNS SF-539
Procedure, shortened: (§1)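 Read-out is sulforhodamine B optical density, expressed as a ratio to untreated control and plotted as percentage growth against log10 compound concentration. Exposure lasted 48 h at five concentrations from 100 to 0.01 μM in the NCI60 screen.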

[2] = system: colon HCT-116; assay: as above; assay type: cell-based; settings: Homo sapiens, HCT-116, 48 h, read-out: Cytotoxicity (GI50) Colon HCT-116
Procedure, shortened: as §1

[3] = system: lung HOP-62; assay: as above; assay type: cell-based; settings: Homo sapiens, HOP-62, 48 h, read-out: Cytotoxicity (GI50) lung HOP-62
Procedure, shortened: as §1

[4] = system: melanoma UACC-62; assay: as above; assay type: cell-based; settings: Homo sapiens, UACC-62, 48 h, read-out: Cytotoxicity (GI50) melanoma UACC-62
Procedure, shortened: as §1

[5] = system: ovarian OVCAR-3; assay: as above; assay type: cell-based; settings: Homo sapiens, OVCAR-3, 48 h, read-out: Cytotoxicity (GI50) Ovarian OVCAR-3
Procedure, shortened: as §1

[6] = system: prostate DU-145; assay: as above; assay type: cell-based; settings: Homo sapiens, DU-145, 48 h, read-out: Cytotoxicity (GI50) prostate DU-145
Procedure, shortened: as §1

[7] = system: renal SN12C; assay: as above; assay type: cell-based; settings: Homo sapiens, SN12C, 48 h, read-out: Cytotoxicity (GI50) renal SN12C
Procedure, shortened: as §1

[8] = system: all human cancer cell lines successfully tested; assay: NCI screen mean graph midpoint (MGM) for growth inhibition; assay type: cell-based; settings: Table 6; for GI50's against various cell lines (in words): NCI60 cell lines; for MGM (mean GI50 across cell lines): all human cancer cell lines successfully tested, range 10^−8 to 10^−4 molar, with standard error
Procedure, shortened: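 NCI60 panel cells exposed to compound at 100, 10, 1, 0.1 and 0.01 μM for 48 h, then sulforhodamine B staining. Percentage growth versus control plotted against log concentration; MGM is the midpoint across all lines tested.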

[9] = target: T1, Human recombinant Top1 (Homo sapiens, UniProt P11387); assay: Topoisomerase 1-mediated DNA cleavage reactions (B), 117-bp DNA oligonucleotide; assay type: biochemical; design: key to Top1 inhibitory activity (level): 0, no detectable activity; +, weak activity; ++, similar activity to compound 33; +++, greater activity than 33; ++++, equipotent to 32; Ambiguous scores (e.g., between two values) are designated with parentheses (e.g., ++(+) would be between ++ and +++); key to Top1 (compound-induced DNA cleavage due to Top1 inhibition): 0, no detectable activity; +, weak activity; ++, similar activity to compound 5; +++, greater activity than 34; ++++ , equipotent to 32; The (+) ranking indicates the activity lies between two given values; settings: Table 5; for Top1 inhibitory activity (level): relative to compounds 32 and 33; for Top1 (compound-induced DNA cleavage due to Top1 inhibition): semiquantitative scale relative to 1 μM camptothecin (32) or MJ-III-65 (34)
T1 construct: made in house
T1 sequence (P11387 1-765): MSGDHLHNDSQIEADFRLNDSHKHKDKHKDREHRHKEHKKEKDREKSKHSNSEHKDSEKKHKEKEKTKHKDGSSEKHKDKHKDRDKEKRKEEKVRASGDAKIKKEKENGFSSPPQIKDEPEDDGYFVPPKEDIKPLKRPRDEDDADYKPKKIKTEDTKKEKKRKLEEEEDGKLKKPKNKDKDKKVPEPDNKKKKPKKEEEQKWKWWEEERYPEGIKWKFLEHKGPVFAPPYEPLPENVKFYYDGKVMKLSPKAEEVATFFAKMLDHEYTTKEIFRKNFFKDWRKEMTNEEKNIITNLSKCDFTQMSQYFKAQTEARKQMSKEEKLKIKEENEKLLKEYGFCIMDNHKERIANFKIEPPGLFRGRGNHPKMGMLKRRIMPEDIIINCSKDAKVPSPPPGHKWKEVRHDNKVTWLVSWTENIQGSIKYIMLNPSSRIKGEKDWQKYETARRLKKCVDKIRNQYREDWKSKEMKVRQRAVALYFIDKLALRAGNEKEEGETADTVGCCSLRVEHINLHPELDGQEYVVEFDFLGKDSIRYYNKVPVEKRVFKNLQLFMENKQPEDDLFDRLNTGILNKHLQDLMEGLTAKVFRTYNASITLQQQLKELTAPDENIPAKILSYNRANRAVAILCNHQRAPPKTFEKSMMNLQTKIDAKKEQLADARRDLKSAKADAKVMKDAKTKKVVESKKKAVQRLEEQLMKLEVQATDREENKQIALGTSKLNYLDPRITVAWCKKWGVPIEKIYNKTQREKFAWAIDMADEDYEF
Experimental: Human recombinant Top1 was purified from baculovirus as described in Bailly, C. Curr. Med. Chem. 2000, 7, 39-58. DNA cleavage reactions were prepared as previously reported with the exception of the DNA substrate in Saltz, et al. Oncologist 1997, 2, 402-409.
Approximately 2 nM radiolabeled DNA substrate was incubated with recombinant Top1 in 20 μL of reaction buffer [10 mM Tris-HCl (pH 7.5), 50 mM KCl, 5 mM MgCl2, 0.1 mM EDTA, and 15 μg/mL BSA] at 25° C. for 20 min in the presence of various concentrations of compounds. […] Aliquots of each reaction mixture were subjected to 20% denaturing PAGE. Gels were dried and visualized using a phosphoimager and ImageQuant software (Molecular Dynamics).
All of the new indenoisoquinoline derivatives with C-2 side chains were tested in Top1-mediated DNA cleavage assays. For this purpose, a ^32P 3′-end labeled 117-bp DNA fragment was incubated with Top1 and four 10-fold dilutions starting from 100 μM of a tested compound. The DNA fragments were separated on 20% PAGE denaturing gels. The Top1 inhibitory activities were assigned on the basis of the visual inspection of the number and intensities of the gel bands corresponding to Top1-mediated DNA cleavage fragments. […] Ambiguous scores (e.g., between two values) are designated with parentheses (e.g., ++(+) would be between ++ and +++).

[10] = target: recombinant TDP1 (Homo sapiens, UniProt Q9NUW8); assay: Gel-based assay measuring the inhibition of recombinant TDP1; assay type: biochemical; settings: for IC50: Table 5, determined in duplicate
Experimental: A 5′-[^32P]-labeled single-stranded DNA oligonucleotide containing a 3′-phosphotyrosine (N14Y) was generated as described by Dexheimer et al. (J. Med. Chem. 2009, 52, 7122-7131). The DNA substrate was then incubated with 5 μM recombinant TDP1 in the absence or presence of inhibitor for 15 min at room temperature in a buffer containing 50 mM Tris HCl, pH 7.5, 80 mM KCl, 2 mM EDTA, 1 mM DTT, 40 μg/ml BSA and 0.01% Tween-20. Reactions were terminated by the addition of 1 volume of gel loading buffer [99.5% (v/v) formamide, 5 mM EDTA, 0.01% (w/v) xylene cyanol, and 0.01% (w/v) bromophenol blue]. Samples were subjected to a 16% denaturing PAGE and gels were exposed after drying to a PhosphorImager screen (GE Healthcare). Gel images were scanned using a Typhoon 8600 (GE Healthcare) and densitometric analyses were performed using the ImageQuant software (GE Healthcare).
The TDP1 inhibitory activities of the O-2-substituted indenoisoquinolines were measured by determining their abilities to inhibit the hydrolysis of the phosphodiester linkage between tyrosine and the 3′-end of a DNA oligonucleotide substrate and thus prevent the generation of an oligonucleotide with a free 3′-phosphate (N14P, Scheme 13). Therefore, the disappearance of the gel band for N14P indicates TDP1 inhibition.
Tyrosyl-DNA phosphodiesterase 1 (TDP1) is a DNA repair enzyme that repairs cytotoxic DNA damage induced by Top1 inhibitors.

[11] = system: breast MCF-7; assay: NCI60 antiproliferative activity, cytotoxicity GI50; assay type: cell-based, human; settings: Homo sapiens, MCF7, 48 h, read-out: Cytotoxicity (GI50) breast MCF-7
Experimental: Selected compounds were tested for antiproliferative activity in the National Cancer Institute's developmental therapeutics assay 60 cell line screen (NCI60). The cells were incubated with the tested compounds at 100, 10, 1, 0.1, and 0.01 μM concentrations for 48 h before treatment with sulforhodamine B dye. Optical densities were recorded, and their ratios relative to that of the control were plotted as percentage growth against the log 10 of the tested compound concentrations.

[12] = read-out: TDP1 (IC50, semiquantitative scale)
[13] = read-out: TDP1 inhibitory activity (potency score)

recombinant TDP1, sequence (Q9NUW8 whole entry): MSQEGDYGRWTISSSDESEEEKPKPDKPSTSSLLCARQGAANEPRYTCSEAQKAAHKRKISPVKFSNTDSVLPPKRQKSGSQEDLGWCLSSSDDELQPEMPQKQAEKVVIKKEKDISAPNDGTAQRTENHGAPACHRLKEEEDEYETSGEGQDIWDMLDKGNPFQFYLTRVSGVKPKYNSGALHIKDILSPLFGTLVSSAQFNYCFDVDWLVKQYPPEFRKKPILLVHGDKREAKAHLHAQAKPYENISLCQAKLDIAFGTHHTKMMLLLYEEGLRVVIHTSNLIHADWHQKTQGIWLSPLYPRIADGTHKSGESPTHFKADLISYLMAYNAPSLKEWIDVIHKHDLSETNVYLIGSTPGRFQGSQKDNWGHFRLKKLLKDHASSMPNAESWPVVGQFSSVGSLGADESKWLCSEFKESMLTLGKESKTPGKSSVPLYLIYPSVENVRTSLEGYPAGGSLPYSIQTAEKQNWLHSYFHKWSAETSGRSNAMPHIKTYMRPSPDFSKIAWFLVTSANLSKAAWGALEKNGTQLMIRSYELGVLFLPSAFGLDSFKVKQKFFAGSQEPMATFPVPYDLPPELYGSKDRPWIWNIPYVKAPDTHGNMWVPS

SMILES | Top1 inhibitory activity (level) [9] | Top1 (compound-induced DNA cleavage due to Top1 inhibition) [9] | TDP1 inhibitory activity (in words) [10] | IC50 [10, 12] [µM] | melting point | IC50 [10, 13] [µM] | GI50 [1] [µM] | GI50 [2] [µM] | GI50 [3] [µM] | GI50 [4] [µM] | GI50 [5] [µM] | GI50 [6] [µM] | GI50 [7] [µM] | GI50's against various cell lines (in words) [8] | MGM (mean GI50 across cell lines) [8] [µM] | GI50 [11] [µM]
C=CCOc1cc2c3c(n(CCCN4CCOCC4)c(=O)c2cc1OC)-c1cc2c(cc1C3=O)OCO2 [Compound 20, 2-(Allyloxy)-3-methoxy-6-(3-morpholinopropyl)-5H-[1,3]dioxolo[4′,5′:5,6]indeno [1,2-c]isoquinoline-5,12(6H)-dione] | + or ++ | + | no detectable TDP1 inhibitory activity | > 111 | 199 to 200 °C (dec.) |  | 0.01 | 0.01 | < 0.01 | < 0.01 | 0.3 | < 0.01 | < 0.01 | submicromolar | 0.1 ± 0.035 | < 0.01
COc1cc2c(=O)n(CCCN3CCOCC3)c3c(c2cc1OCCCN1CCCC1)C(=O)c1cc2c(cc1-3)OCO2 [Compound 28, 3-Methoxy-6-(3-morpholinopropyl)-2-(3-(pyrrolidin-1-yl)propoxy)-5H-[1,3]dioxolo[4′,5′:5,6]indeno[1,2-c]isoquinoline-5,12(6H)-dione] | ++ | ++ |  | 1 to 37 |  | 1 to 37 | 0.2 | 0.2 | 0.2 | 0.3 | 1.2 | 0.04 | 0.2 |  | 0.6 ± 0.37 | 0.1
COC(=O)COc1cc2c3c(n(CCCN4CCOCC4)c(=O)c2cc1OC)-c1cc2c(cc1C3=O)OCO2 [Compound 29, Methyl 2-((3-Methoxy-6-(3-morpholinopropyl)-5,12-dioxo-6,12-dihydro-5H-[1,3]dioxolo[4′,5′:5,6]indeno[1,2-c]isoquinolin-2-yl)oxy)acetate] | + or ++ | ++ |  | > 111 |  |  | 0.1 | 1.1 | 0.1 | 1 | 5.8 | 0.9 | 0.8 | low micromolar | 3.1 ± 1.2 | 0.4

Now from value to molecule, other results behind:

Top1 inhibitory activity (level) [9] | Top1 (compound-induced DNA cleavage due to Top1 inhibition) [9] | TDP1 inhibitory activity (in words) [10] | IC50 [10, 12] [µM] | melting point | IC50 [10, 13] [µM] | SMILES | GI50 [1] [µM] | GI50 [2] [µM] | GI50 [3] [µM] | GI50 [4] [µM] | GI50 [5] [µM] | GI50 [6] [µM] | GI50 [7] [µM] | GI50's against various cell lines (in words) [8] | MGM (mean GI50 across cell lines) [8] [µM] | GI50 [11] [µM]
 |  |  | 37 to 111 | > 350 °C |  | COc1cc2c(=O)n(CCCN3CCOCC3)c3c(c2cc1OCCCN)C(=O)c1cc2c(cc1-3)OCO2 [Compound 22, 2-(3-Aminopropoxy)-3-methoxy-6-(3-morpholinopropyl)-5H-[1,3]dioxolo [4′,5′:5,6]indeno[1,2-c]isoquinoline-5,12(6H)-dione] | 0.2 | 0.2 | 0.3 | 0.3 | 0.4 | 0.3 | 0.3 | submicromolar | 0.5 ± 0.092 | 0.2
+++ | +++ | no TDP1 inhibitory activity was observed | > 111 |  |  | COc1cc2c(=O)n(CCCN3CCOCC3)c3c(c2cc1OCCCN1CCOCC1)C(=O)c1cc2c(cc1-3)OCO2 [Compound 25, 3-Methoxy-2-(3-morpholinopropoxy)-6-(3-morpholinopropyl)-5H-[1,3]dioxolo [4′,5′:5,6]indeno[1,2-c]isoquinoline-5,12(6H)-dione] | 0.1 | 0.1 | 0.03 | 0.2 | 0.7 | 0.02 | 0.1 | submicromolar | 0.2 ± 0.028 | 0.02
+++ | +++ |  | 12 to 37 |  | 12 to 37 | COc1cc2c(=O)n(CCCN3CCOCC3)c3c(c2cc1OCCCN1CCCCC1)C(=O)c1cc2c(cc1-3)OCO2 [Compound 27, 3-Methoxy-6-(3-morpholinopropyl)-2-(3-(piperidin-1-yl)propoxy)-5H-[1,3]dioxolo [4′,5′:5,6]indeno[1,2-c]isoquinoline-5,12(6H)-dione] | 0.03 | 1.1 | 0.3 | 9.6 | 5.4 | 0.2 | 0.4 | low micromolar | 1.6 ± 0.23 | 0.04
